# Source: patent publication US12208105B2, “Methods for attenuating graft-versus-host disease and opportunistic infections” (priority 2018, dated 2025)
# Like-named read-outs stand apart in the source and are kept apart here.
# Legend:
# CCR7 = molecular target: T1, CCR7 (Homo sapiens, UniProt P32248); assay: HTS primary reporter assay, human CCR7; format: cell-based
# T1 sequence (P32248 25-378): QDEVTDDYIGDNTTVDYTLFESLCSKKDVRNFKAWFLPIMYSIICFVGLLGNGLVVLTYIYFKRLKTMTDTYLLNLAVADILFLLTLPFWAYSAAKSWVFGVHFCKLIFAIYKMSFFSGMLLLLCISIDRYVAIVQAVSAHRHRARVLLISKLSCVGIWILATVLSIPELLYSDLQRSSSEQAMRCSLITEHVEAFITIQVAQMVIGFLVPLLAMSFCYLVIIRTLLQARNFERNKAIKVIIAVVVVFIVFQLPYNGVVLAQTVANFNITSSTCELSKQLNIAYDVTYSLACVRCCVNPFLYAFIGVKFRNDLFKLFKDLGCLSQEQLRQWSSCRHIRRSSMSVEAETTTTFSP
# B6 into B6D2 aGVHD model [1] = assay: aGVHD, B6 into B6D2 transplant, cosalane dosed systemically; format: in vivo, mouse
# Protocol: Transplantation Procedures: Recipient mice were irradiated on transplant day −1. Recipients were then administered T cell depleted (TCD) bone marrow cells +/−CD25^− column-purified conventional T cells (Tcons) to induce aGVHD as previously described (Wysocki et al., J. Immunol. 173:845 (2004); Carlson et al., Blood 113:1365 (2009)). Tcons consisted of CD4^+ and CD8^+ T cells in a 1:1 ratio. For ex-vivo cosalane incubations, cell populations were suspended in serum/protein free injectable saline unless otherwise indicated. […] The cells were then administered immediately to recipients by tail vein injection.
# Epstein Barr virus (EBV) = format: cell-based, human
# B6 into B6D2 aGVHD model [2] = system: B6 into B6D2 aGVHD model
# [3] = system: P815 murine mastocytoma cells; assay: P815 graft-versus-leukemia model with in vivo imaging
# Protocol: B6D2 mice were lethally irradiated on transplant day −1. On day 0 recipients were administered 3×10^6 TCD B6 BM cells and 2.5×10^4 luciferase^+ P815 murine mastocytoma cells (H-2^d)+/−4×10^6 B6 Tcons. Donor Tcons were incubated ex vivo with DMSO vehicle or cosalane diluted in normal saline at 15 μg/ml. The cells were then mixed with untreated BM/tumor cells and administered immediately to recipient mice by tail vein injection. Mice were then serially imaged twice weekly following the intraperitoneal injection of luciferin. […] Recipient mortality was attributed to tumor versus aGVHD based on the tumor burden by imaging and clinical aGVHD scores at the time of death. Exposure time=4 seconds for all panels. N=5 per treatment group.
# B6D2 mice were lethally irradiated on transplant day −1. On day 0 recipients were administered 3×10^6 TCD B6 BM cells and 2.5×10^4 luciferase^+ P815 murine mastocytoma cells. Some recipients also received 2×10^6 DMSO treated B6 Tcons or 4×10^6 cosalane treated B6 Tcons (15 μg/ml). Mice were then serially imaged twice weekly following the intraperitoneal injection of luciferin. […] Exposure time=4 seconds for all panels. The “mixed” cage on the far right contained one mouse each of the BM/P815 only, BM/P815 plus DMSO Tcons, and BM/P815 plus cosalane Tcons groups. N=6 per treatment group.
# P815 graft-versus-leukemia model and in vivo imaging: Luciferase transfected P815 murine mastocytoma cells (H-2^d) were a kind gift from the laboratory of Dr. Jonathan Serody. P815 cells were cultured and then mixed with TCD bone marrow cells prior to transplantation. A tumor dose of 2.5×10^4 P815 cells was used for all experiments. Recipients were then serially imaged using an IVIS Kinetic Optical real-time imaging system to monitor for in vivo tumor growth twice weekly. For imaging, recipients were dosed with 3 mg of D-luciferin (Perkin Elmer) by intraperitoneal injection 10 minutes prior to the procedure. Mice were then anesthetized with isoflurane during image acquisition. Unless otherwise indicated an exposure time of 4 seconds was used for all images.
# As a result, we evaluated cosalane's effects on GVL immunity using a well described P815 murine mastoma (H-2^d) leukemia model. Here, B6D2 mice were lethally irradiated and then administered 3×10^6 TCD B6 bone marrow cells containing 25,000 luciferase transfected P815 cells +/−4×10^6 B6 Tcons to drive a GVL response. One half of those mice receiving BM/Tumor plus Tcons were administered Tcons incubated with DMSO and the other one half received cosalane treated Tcons. Recipients were subsequently evaluated by serial in vivo imaging in order to monitor tumor growth in each treatment group. […]
# [4] = BM plus Tcons incubated 15 μg/ml
# [5] = Tcons incubated 10 μg/ml (13 μM) in saline alone, one hour
# [6] = 4×10^6 Tcons incubated 15 μg/ml
# [7] = 4×10^6 cosalane treated Tcons vs 2×10^6 DMSO Tcons
compound,measurement,setting,value
"CC(C)CCC[C@@H](C)[C@H]1CC[C@H]2[C@@H]3CC[C@H]4C[C@@H](CCC=C(c5cc(Cl)c(O)c(C(=O)O)c5)c5cc(Cl)c(O)c(C(=O)O)c5)CC[C@]4(C)[C@H]3CC[C@]12C [Cosalane, cosalane]",IC50,"CCR7; ligand CCL19, read-out: Human CCR7 IC50 To CCL19",0.207 µM
same,IC50,"CCR7; ligand CCL21, read-out: Human CCR7 IC50 To CCL21",2.66 µM
same,aGVHD (survival and scores) with systemic dosing,"B6 into B6D2 aGVHD model [1]; 10 mg/kg intravenous, day 0, +3, +6",did not attenuate aGVHD and may have actually worsened clinical outcomes
same,dosages much better tolerated by irradiated recipients,"B6 into B6D2 aGVHD model [1]; irradiated recipients, 10 mg/kg excessively high",0.5 to 2 mg/kg
same,"EBV infection, isolated pretreatment of target cells","Epstein Barr virus (EBV); 20 μg/ml pretreatment one hour, washed",reduced viral infection to a significant degree
same,"EBV infectivity, compound present throughout","Epstein Barr virus (EBV); 20 μg/ml, Raji cells, 48 hours",significantly limited EBV infectivity
same,"recipients surviving to the end of the study period, combined treatment",B6 into B6D2 aGVHD model [2]; BM cells and Tcons incubated 15 μg/ml,100%
same,delayed bone marrow failure,B6 into B6D2 aGVHD model [2]; [4],no clinical signs of delayed bone marrow failure
same,group surviving to the end of the study observation period,B6 into B6D2 aGVHD model [2]; [4],90%
same,aGVHD scores,B6 into B6D2 aGVHD model [2]; [5],reduced aGVHD scores
same,median survival times,B6 into B6D2 aGVHD model [2]; [5],improved median survival times
same,aGVHD,B6 into B6D2 aGVHD model [2]; Tcons incubated 10 μg/ml in saline plus 1% albumin,developed severe aGVHD similar to DMSO controls
same,"survival, isolated treatment of donor Tcons","B6 into B6D2 aGVHD model [2]; Tcons incubated 15 μg/ml, BM DMSO",100%
same,"transplant outcomes, dose dependence","B6 into B6D2 aGVHD model [2]; Tcons incubated 10, 20 or 30 μg/ml",improved transplant outcomes with increasing dosages
same,"aGVHD attenuation, whole stem product treated","B6 into B6D2 aGVHD model [2]; mouse, in vivo",attenuate aGVHD at least as well as what was observed previously with the isolated treatment of Tcons alone
same,"outcomes, isolated treatment of donor BM cells alone","B6 into B6D2 aGVHD model [2]; mouse, in vivo",did not significantly improve outcomes
same,overall survival times,[3]; [6],longest overall survival times
same,tumor growth,[3]; [6],substantial suppression of tumor growth
same,mice died of aGVHD,[3]; [7],3/6
same,mice succumbed to malignancy,[3]; [7],none succumbed to malignancy
